# What was measured:
# [1] = biological target: Human immunodeficiency virus type 1 reverse transcriptase (Human immunodeficiency virus 1, UniProt Q72547); assay: Inhibitory activity against wild type reverse transcriptase (WT RT) of HIV-1
# [2] = tested on: Human immunodeficiency virus 1; assay: Effective concentration against wild-type HIV-1; format: functional, organism-based
# [3] = tested on: Human immunodeficiency virus 1; assay: Inhibitory activity against HIV-1 mutant strain K103N/Y181C; format: functional, organism-based
# [4] = tested on: Human immunodeficiency virus 1; assay: Effective concentration against mutant K103N/Y181C of HIV-1; format: functional, organism-based
# Cytochrome P450 3A4 [5] = biological target: T1, Cytochrome P450 3A4 (Homo sapiens, UniProt P08684); assay: Inhibition of CYP450 (Cytochrome P450) 3A4 with fluorogenic substrate BFC; format: ADME
# Cytochrome P450 3A4 [6] = biological target: T1, Cytochrome P450 3A4; assay: Inhibition of CYP450 (Cytochrome P450) 3A4 with fluorogenic substrate BQ; format: ADME
# Cytochrome P450 1A2 [7] = biological target: T2, Cytochrome P450 1A2 (Homo sapiens, UniProt P05177); assay: Inhibition of cytochrome P450 1A2; format: ADME
# T2 sequence (P05177 whole entry): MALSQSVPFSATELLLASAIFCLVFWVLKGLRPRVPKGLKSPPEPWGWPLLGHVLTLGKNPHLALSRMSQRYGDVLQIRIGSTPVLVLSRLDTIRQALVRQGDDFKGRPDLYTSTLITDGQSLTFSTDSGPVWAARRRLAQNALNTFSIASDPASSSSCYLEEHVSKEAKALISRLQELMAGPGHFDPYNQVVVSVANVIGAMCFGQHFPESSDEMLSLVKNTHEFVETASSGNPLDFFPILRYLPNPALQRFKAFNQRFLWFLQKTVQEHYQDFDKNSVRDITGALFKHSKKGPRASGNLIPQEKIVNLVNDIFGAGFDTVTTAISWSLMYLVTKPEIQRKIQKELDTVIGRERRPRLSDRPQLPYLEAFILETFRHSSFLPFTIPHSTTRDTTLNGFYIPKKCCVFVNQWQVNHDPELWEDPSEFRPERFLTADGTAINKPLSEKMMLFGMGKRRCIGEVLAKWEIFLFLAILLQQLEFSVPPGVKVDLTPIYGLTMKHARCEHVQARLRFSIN
# Cytochrome P450 2C19 = Cytochrome P450 2C19 (Homo sapiens, UniProt P33261); assay: Inhibition of cytochrome P450 2C19; format: ADME
# [8] = Half-life for oxidative metabolic stability was determined using rat liver microsomes; format: ADME, Microsome
# Homo sapiens = organism: Homo sapiens; assay: Half-life for oxidative metabolic stability was determined using male human; details: in vitro
# Cytochrome P450 2C9 [9] = biological target: T3, Cytochrome P450 2C9 (Homo sapiens, UniProt P11712); assay: Inhibition of cytochrome P450 2C9; format: ADME
# Cytochrome P450 2D6 [10] = biological target: T4, Cytochrome P450 2D6 (Homo sapiens, UniProt P10635); assay: Inhibition of CYP450 (Cytochrome P450) 2D6; format: ADME
# Cytochrome P450 1A2 [11] = biological target: T2, Cytochrome P450 1A2; assay: Inhibition of CYP450 (Cytochrome P450) 1A2; format: ADME
# Cytochrome P450 2C9 [12] = biological target: T3, Cytochrome P450 2C9; assay: Inhibition of CYP450 (Cytochrome P450) 2C9; format: ADME
# [13] = Volume of distribution at steady state was evaluated in rats; format: ADME, organism-based; details: rat, in vivo; read-out: Vss
# Cytochrome P450 2D6 [14] = biological target: T4, Cytochrome P450 2D6; assay: Inhibition of cytochrome P450 2D6; format: ADME
# [15] = Maximum concentration was evaluated in rats; format: ADME, organism-based; details: rat, in vivo
# [16] = Bioavailability in rats was evaluated; format: ADME, organism-based; details: rat, in vivo; read-out: Bioavailabiility
# [17] = Half-life consistent with the observed metabolic steady state in rats; format: ADME, organism-based; details: rat, in vivo
# [18] = Plasma clearance in rats; format: ADME, organism-based; details: rat
# T4 sequence (P10635 whole entry): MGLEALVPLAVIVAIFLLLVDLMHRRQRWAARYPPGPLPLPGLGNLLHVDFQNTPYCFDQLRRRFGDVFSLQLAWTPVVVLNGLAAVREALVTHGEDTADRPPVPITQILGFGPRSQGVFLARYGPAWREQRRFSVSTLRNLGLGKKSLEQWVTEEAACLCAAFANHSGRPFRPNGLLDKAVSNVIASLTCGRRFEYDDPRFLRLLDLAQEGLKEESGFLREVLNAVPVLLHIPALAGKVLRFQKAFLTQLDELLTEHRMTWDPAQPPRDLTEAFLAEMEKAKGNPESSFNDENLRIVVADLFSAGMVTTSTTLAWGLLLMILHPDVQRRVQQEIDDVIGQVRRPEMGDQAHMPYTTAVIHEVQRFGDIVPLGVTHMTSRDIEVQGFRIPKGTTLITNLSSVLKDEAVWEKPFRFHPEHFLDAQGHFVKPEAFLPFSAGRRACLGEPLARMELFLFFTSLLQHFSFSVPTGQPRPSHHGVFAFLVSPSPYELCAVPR
# Sequence of Cytochrome P450 2C19 (P33261 whole entry): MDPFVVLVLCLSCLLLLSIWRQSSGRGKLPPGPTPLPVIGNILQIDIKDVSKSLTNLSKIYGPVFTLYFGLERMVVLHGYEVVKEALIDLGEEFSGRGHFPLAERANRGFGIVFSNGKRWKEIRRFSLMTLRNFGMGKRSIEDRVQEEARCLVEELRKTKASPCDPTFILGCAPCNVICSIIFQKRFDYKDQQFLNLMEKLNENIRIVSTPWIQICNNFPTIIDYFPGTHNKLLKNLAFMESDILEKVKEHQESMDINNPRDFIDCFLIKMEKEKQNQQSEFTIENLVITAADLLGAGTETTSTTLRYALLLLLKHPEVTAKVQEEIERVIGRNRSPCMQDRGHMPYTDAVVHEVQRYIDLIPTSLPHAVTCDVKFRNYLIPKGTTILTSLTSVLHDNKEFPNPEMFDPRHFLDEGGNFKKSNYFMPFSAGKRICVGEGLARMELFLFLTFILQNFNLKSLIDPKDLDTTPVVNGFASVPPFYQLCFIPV
# T3 sequence (P11712 whole entry): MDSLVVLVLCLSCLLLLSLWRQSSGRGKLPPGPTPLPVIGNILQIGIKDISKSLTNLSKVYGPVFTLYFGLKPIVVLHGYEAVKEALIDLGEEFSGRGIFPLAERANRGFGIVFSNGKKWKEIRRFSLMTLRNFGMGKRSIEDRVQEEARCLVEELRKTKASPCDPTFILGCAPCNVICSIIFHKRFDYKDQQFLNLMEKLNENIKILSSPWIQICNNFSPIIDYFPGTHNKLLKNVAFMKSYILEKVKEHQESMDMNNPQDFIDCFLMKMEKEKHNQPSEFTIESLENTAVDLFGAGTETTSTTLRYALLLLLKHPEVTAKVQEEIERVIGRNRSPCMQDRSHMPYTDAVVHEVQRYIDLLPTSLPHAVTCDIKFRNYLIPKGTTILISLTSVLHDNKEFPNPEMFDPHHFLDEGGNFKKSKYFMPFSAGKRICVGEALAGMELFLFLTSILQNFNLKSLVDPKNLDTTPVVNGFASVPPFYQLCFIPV
# T1 sequence (P08684 whole entry): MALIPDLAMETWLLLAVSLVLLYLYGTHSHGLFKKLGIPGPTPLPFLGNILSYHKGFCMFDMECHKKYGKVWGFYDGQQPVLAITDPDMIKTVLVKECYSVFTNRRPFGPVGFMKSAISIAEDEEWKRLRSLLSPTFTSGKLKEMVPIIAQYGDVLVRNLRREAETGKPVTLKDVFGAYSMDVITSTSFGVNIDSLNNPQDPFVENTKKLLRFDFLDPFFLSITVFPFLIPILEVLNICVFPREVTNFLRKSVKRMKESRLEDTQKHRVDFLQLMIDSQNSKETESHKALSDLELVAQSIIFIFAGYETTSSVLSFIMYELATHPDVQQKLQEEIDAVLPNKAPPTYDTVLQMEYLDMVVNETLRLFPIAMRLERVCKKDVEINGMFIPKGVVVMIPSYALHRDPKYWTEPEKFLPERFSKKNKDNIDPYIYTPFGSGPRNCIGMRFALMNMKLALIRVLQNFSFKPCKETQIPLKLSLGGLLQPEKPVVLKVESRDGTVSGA
structure (smiles),measurement,setting,value
CCN1c2ncc(CSc3nc(C)cc(C)n3)cc2C(=O)Nc2c(C)cc(Cl)nc21,IC50,[1],6 nM
same,EC50,[2],1.5 nM
same,IC50,[3],320 nM
Cc1cc(SCc2cnc3c(c2)C(=O)Nc2c(C)cc(Cl)nc2N3C2CC2)cc(C)n1,IC50,[1],12 nM
same,EC50,[2],2.2 nM
same,IC50,[3],280 nM
same,EC50,[4],104 nM
CCN1c2ncc(CSc3ccncc3)cc2C(=O)N(C)c2ccc(Cl)nc21,IC50,[1],3 nM
same,EC50,[2],0.31 nM
same,IC50,[3],26 nM
CCN1c2ncc(CSc3cc(C)nc(C)c3)cc2C(=O)Nc2c(C)cc(F)nc21,IC50,Cytochrome P450 3A4 [5],2500 nM
same,IC50,Cytochrome P450 3A4 [6],10000 nM
same,IC50,Cytochrome P450 1A2 [7],26000 nM
same,IC50,[1],6.9 nM
same,EC50,[2],1 nM
same,IC50,Cytochrome P450 2C19,5400 nM
same,half-life,[8],5 min
same,IC50,[3],120 nM
same,EC50,[4],21 nM
same,half-life,Homo sapiens,5 min
same,IC50,Cytochrome P450 2C9 [9],4500 nM
same,IC50,Cytochrome P450 2D6 [10],27000 nM
CCN1c2ncc(CSc3cc(C)nc(C)c3)cc2C(=O)Nc2c(C)ccnc21,IC50,Cytochrome P450 3A4 [5],1600 nM
same,IC50,Cytochrome P450 3A4 [6],10000 nM
same,IC50,[1],4.2 nM
same,IC50,Cytochrome P450 1A2 [11],> 30000 nM
same,EC50,[2],0.46 nM
same,IC50,Cytochrome P450 2C19,26000 nM
same,IC50,Cytochrome P450 2C9 [12],7400 nM
same,half-life,[8],9 min
same,IC50,[3],170 nM
same,EC50,[4],12 nM
same,half-life,Homo sapiens,9 min
same,IC50,Cytochrome P450 2D6 [10],> 30000 nM
CCN1c2ncc(CSc3ccncc3)cc2C(=O)Nc2c(C)cc(Cl)nc21,IC50,[1],2.2 nM
same,EC50,[2],0.48 nM
same,IC50,[3],80 nM
CCN1c2ncc(CSc3cc(C)nc(C)c3)cc2C(=O)Nc2c(C)cc(Cl)nc21,IC50,Cytochrome P450 3A4 [5],2300 nM
same,Vd,[13],4.68 L/kg
same,IC50,Cytochrome P450 2D6 [14],27000 nM
same,Cmax,[15],800 nM
same,IC50,Cytochrome P450 3A4 [6],8100 nM
same,bioavailability,[16],76%
same,IC50,Cytochrome P450 1A2 [7],23000 nM
same,half-life,[17],90 min
same,IC50,[1],7 nM
same,EC50,[2],1.2 nM
same,IC50,Cytochrome P450 2C19,4200 nM
same,half-life,[8],4 min
same,IC50,[3],60 nM
same,EC50,[4],14 nM
same,half-life,Homo sapiens,7 min
same,IC50,Cytochrome P450 2C9 [9],2600 nM
same,clearance,[18],57 mL/min/kg
CCN1c2ncc(CSc3cncnc3)cc2C(=O)Nc2c(C)cc(Cl)nc21,IC50,[1],26 nM
same,EC50,[2],7.8 nM
same,IC50,[3],5000 nM
CCN1c2ncc(CSc3ccnc(C)c3)cc2C(=O)Nc2c(C)cc(Cl)nc21,IC50,[1],27 nM
same,EC50,[2],3.4 nM
same,IC50,[3],310 nM
CCN1c2ncc(CSc3ccncc3C)cc2C(=O)Nc2c(C)cc(Cl)nc21,IC50,[1],11 nM
same,EC50,[2],3.1 nM
same,IC50,[3],1640 nM
CCN1c2ncc(CSc3nc4ccccc4o3)cc2C(=O)Nc2c(C)cc(Cl)nc21,IC50,[1],8 nM
same,EC50,[2],2.7 nM
same,IC50,[3],230 nM

# — ChEMBL document CHEMBL1137947, “Novel nevirapine-like inhibitors with improved activity against NNRTI-resistant HIV: 8-heteroarylthiomethyldipyridodiazepinone derivatives” (Bioorg Med Chem Lett, 2004)
